Measurements published in article PMC10444817, “New proapoptotic chemotherapeutic agents based on the quinolone-3-carboxamide scaffold acting by VEGFR-2 inhibition” (Scientific Reports, 2023).
“And” between values parts separate entries of the source, which are not always exact repeats. Equal entries are not always repeated.

What was measured:
HepG2 cells [1] = experiment: MTT cytotoxicity against HepG2 tumor cell line; conditions: read-out: Cytotoxic activity against HepG2 cell line IC50, 48 h, average of 3 independent runs ± SE
VEGFR-2 = VEGFR-2 (Homo sapiens, UniProt P35968); experiment: VEGFR-2 kinase inhibition assay (Kinase-Glo MAX luminescence kit, BPS Bioscience); conditions: for IC50: VEGFR-2 inhibitory activity IC50, average of 3 independent runs ± SE; for Fold increase in VEGFR-2 inhibitory activity compared to para methyl substituted derivatives 10b and 10k: 4-isopropyl vs 4-CH3 analogue
Sequence of VEGFR-2 (P35968 20-1356): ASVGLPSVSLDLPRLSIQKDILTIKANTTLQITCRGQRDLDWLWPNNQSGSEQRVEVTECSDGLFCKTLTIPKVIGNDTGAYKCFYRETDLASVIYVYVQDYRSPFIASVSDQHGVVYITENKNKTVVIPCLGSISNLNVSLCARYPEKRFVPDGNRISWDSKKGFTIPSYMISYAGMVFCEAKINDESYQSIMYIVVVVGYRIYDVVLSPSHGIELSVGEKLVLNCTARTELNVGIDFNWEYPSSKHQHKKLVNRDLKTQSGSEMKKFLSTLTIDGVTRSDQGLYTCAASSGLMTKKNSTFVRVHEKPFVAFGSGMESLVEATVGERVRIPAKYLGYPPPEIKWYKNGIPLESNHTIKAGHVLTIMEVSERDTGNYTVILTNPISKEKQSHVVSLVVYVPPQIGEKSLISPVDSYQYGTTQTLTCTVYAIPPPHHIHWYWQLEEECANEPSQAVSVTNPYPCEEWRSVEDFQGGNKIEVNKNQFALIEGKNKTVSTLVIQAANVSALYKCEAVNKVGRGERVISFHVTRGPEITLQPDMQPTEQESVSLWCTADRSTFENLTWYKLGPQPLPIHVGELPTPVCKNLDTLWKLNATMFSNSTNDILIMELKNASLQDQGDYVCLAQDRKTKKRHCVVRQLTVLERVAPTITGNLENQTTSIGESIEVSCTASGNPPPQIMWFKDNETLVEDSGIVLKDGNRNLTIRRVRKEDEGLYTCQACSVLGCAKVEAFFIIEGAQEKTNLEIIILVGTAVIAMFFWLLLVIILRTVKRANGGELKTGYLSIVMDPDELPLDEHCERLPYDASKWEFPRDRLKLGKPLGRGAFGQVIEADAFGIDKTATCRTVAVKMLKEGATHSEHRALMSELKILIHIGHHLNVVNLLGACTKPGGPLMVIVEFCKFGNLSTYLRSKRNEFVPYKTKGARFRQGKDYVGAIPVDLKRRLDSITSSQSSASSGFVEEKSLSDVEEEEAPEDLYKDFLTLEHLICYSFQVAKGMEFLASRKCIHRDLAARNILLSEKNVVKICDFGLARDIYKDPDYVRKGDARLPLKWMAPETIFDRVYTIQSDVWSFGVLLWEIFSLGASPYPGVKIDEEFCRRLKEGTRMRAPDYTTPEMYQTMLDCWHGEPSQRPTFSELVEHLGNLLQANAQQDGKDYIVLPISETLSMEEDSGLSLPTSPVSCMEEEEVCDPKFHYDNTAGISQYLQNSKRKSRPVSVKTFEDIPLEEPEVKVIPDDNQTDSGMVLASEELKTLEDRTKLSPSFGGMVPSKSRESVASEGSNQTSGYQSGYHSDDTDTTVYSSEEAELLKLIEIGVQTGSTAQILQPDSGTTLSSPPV

Caspase-7 [2] = experiment: Western blotting of Caspase-7 protein expression in HepG2 cells; assay type: cell-based, human; conditions: HepG2, 48 h at IC50 concentration; normalized to β-actin
Protocol: (§1) Western blotting was performed to assess the relative normalized protein expression of the apoptotic proteins Bax and Caspase-7 in HepG2 cancer cells when pre-treated for 48 h with compound 10i at its IC50 concentration in comparison to non-treated HepG2 cells. […] The current findings provide strong evidence for the positive apoptotic activity of compound 10i in HepG2 cells that accompanies its inhibitory activity on cell proliferation.
(§2) Cells were harvested and washed with phosphate buffer saline (PBS). The cells were then lysed in 10 mM Tris–HCl, 100 mM NaCl, 0.5% Triton X-100, pH 7.6 with EDTA-free Protease Inhibitor Cocktail. This was followed by a centrifugation step at 13,000g for 20 min at 4 °C and direct transfer to sodium dodecyl sulfate–polyacrylamide gel (SDS–PAGE). Western blot analysis was performed using primary antibodies against the target proteins and HRP-conjugated secondary antibodies (Table 12). The chemiluminescence reaction was performed using the ECL western blot HRP substrate (Pierce, Thermo Fisher Scientific). Finally, densitometric quantification of Western blot protein bands were performed with IMAGEJ Software.

HepG2 cells [3] = experiment: Cell cycle analysis by DNA flow cytometry; assay type: cell-based, human; conditions: HepG2, 48 h at IC50 concentration; frequency of cells, triplicate ± SD
Protocol: DNA flow cytometry was used to analyze the cell cycle kinetics of HepG2 cancer cells when pre-treated for 48 h with compound 10i at its IC50 concentration. Non-treated HepG2 cells were considered as negative control.
The assay was performed as previously mentioned. In brief, HepG2 cells were pre-incubated with compound 10i at its IC50 concentration for 48 h. Then, about 10^5 cells were attained by trypsinization and washed with phosphate buffer saline (PBS). This was followed by a resuspension step with 60% ice-cold ethanol and incubation till fixation occurs. The fixed cells were washed again and resuspended in a buffer that included 50 μg/mL RNAase A and 10 μg/mL propidium iodide. Finally, cells were incubated at 37 °C in the dark for 20 min and analyzed for the cell cycle kinetics using flow cytometry where FL2 (λex/em 535/617 nm) was used as the signal detector (ACEA Novocyt flowcytometer, ACEA Biosciences Inc., San Diego, CA, USA). A query of 12,000 events was recommended for each sample. ACEA NovoExpress software (ACEA Biosciences Inc., San Diego, CA, USA) was used for analysis.

[4] = test system: Transformed Human Liver Epithelial-2 normal cell line (THLE-2); experiment: MTT cytotoxicity against THLE-2 normal liver cell line; assay type: cell-based; conditions: CC50 (THLE-2) / IC50 (HepG2)
Protocol: (§3) The produced formazan was measured by means of the spectrophotometer ROBONIK P2000 at a wavelength of 570 nm. The Cytotoxic concentration values (CC50) of the assessed compounds were reported as the mean of three independent runs ± SE[69].

[5] = as above; assay type: cell-based, human; conditions: human, THLE-2 normal liver epithelial cells; MTT, 48 h; measured in triplicates; read-out: CC50 cytotoxic activity against THLE-2 normal cell line
Protocol: as §3

VEGFR-2 gene = experiment: RT-qPCR of VEGFR-2 gene expression in HepG2 cells; assay type: cell-based, human; conditions: HepG2, 48 h at IC50 concentration; normalized to β-actin
Protocol: RT-qPCR was performed to assess the relative normalized gene expression of VEGFR-2 gene in HepG2 cancer cells when pre-treated for 48 h with compound 10i at its IC50 concentration utilizing non-treated HepG2 cells as negative control.
Total RNA was isolated from both 10i-treated and untreated HepG2 cell line pellets using Qiagen RNeasy Mini kit Cat# No. 74104 according to the manufacturer’s guidelines. Then, quantification and quality assessment of the isolated RNA samples were determined by the Nanodrop spectrophotometer at A230, A260 and A280.
cDNA synthesis was performed for RNA using the Promega cDNA Synthesis AMV Reverse Transcriptase Kit (cat# M5108) according to the manufacturer’s instructions. The cDNA synthesis was performed on Bio-Rad 100 Thermal cycler.
Primers for the VEGFR-2 gene were designed and synthesized followed by primer validation and optimization of PCR amplification conditions. RT-qPCR expression analysis for the required genes (ß-actin and VEGFR-2) has been done using the Qiagen Quanti Nova SYBR Green PCR Kit (cat # 208052).

Bax [6] = experiment: Western blotting of Bax protein expression in HepG2 cells; assay type: cell-based, human; conditions: HepG2, 48 h at IC50 concentration; normalized to β-actin
Protocol: as §1, §2

HepG2 cells [7] = conditions: at its IC50 for 48 h; cited from earlier work
HepG2 cells [8] = conditions: cited from earlier work
Bax [9] = test system: Bax; set-up: method as in Li et al. 44; conditions: ref Li et al. 44; cited from earlier work
Caspase-7 [10] = test system: Caspase-7; set-up: method as in Li et al. 44; conditions: ref Li et al. 44; cited from earlier work

Row | melting point [°C] | IC50 (VEGFR-2) | SMILES | IC50 (HepG2 cells [1]) [µM] | also measured
1 | > 300 | 0.069 ± 2e-05 µM | Cc1ccccc1NC(=O)Nc1ccc(NC(=O)c2c[nH]c3ccc(Cl)cc3c2=O)cc1 [Compound 10d, 6-Chloro-4-oxo-N-(4-(3-(o-tolyl)ureido)phenyl)-1,4-dihydroquinoline-3-carboxamide] | 1.07 ± 0.06 | 
2 | > 300 | 0.197 µM and 0.179 µM | O=C(Nc1ccc(F)cc1)Nc1ccc(NC(=O)c2c[nH]c3ccc(Cl)cc3c2=O)cc1 [Compound 10e, 6-Chloro-N-(4-(3-(4-fluorophenyl)ureido)phenyl)-4-oxo-1,4-dihydroquinoline-3-carboxamide] | 0.88 ± 0.05 | 
3 | > 300 | 0.34 ± 1e-05 µM | O=C(Nc1ccccc1)Nc1ccc(NC(=O)c2c[nH]c3ccc(F)cc3c2=O)cc1 [Compound 10j, 6-Fluoro-4-oxo-N-(4-(3-phenylureido)phenyl)-1,4-dihydroquinoline-3-carboxamide] | 41.9 ± 2.52 | 
4 | > 300 | 2.226 ± 9e-05 µM | Cc1ccc(NC(=O)Nc2ccc(NC(=O)c3c[nH]c4ccc(F)cc4c3=O)cc2)cc1 [Compound 10k, 6-Fluoro-4-oxo-N-(4-(3-(p-tolyl)ureido)phenyl)-1,4-dihydroquinoline-3-carboxamide] | 34.2 ± 2.06 | 
5 | > 300 | 0.317 ± 1e-05 µM | Cc1cccc(NC(=O)Nc2ccc(NC(=O)c3c[nH]c4ccc(F)cc4c3=O)cc2)c1 [Compound 10l, 6-Fluoro-4-oxo-N-(4-(3-(m-tolyl)ureido)phenyl)-1,4-dihydroquinoline-3-carboxamide] | 14.2 ± 0.82 | 
6 | > 300 | 0.181 ± 1e-05 µM | Cc1ccccc1NC(=O)Nc1ccc(NC(=O)c2c[nH]c3ccc(F)cc3c2=O)cc1 [Compound 10m, 6-Fluoro-4-oxo-N-(4-(3-(o-tolyl)ureido)phenyl)-1,4-dihydroquinoline-3 carboxamide] | 13 ± 0.75 | 
7 | > 300 | 0.257 ± 1e-05 µM | O=C(Nc1ccc(F)cc1)Nc1ccc(NC(=O)c2c[nH]c3ccc(F)cc3c2=O)cc1 [Compound 10n, 6-Fluoro-N-(4-(3-(4-fluorophenyl)ureido)phenyl)-4-oxo-1,4-dihydroquinoline-3-carboxamide] | 2.88 ± 0.14 | 
8 | > 300 | 0.038 ± 2e-05 µM | O=C(Nc1ccc(NC(=O)c2c[nH]c3ccc(F)cc3c2=O)cc1)Nc1cccc(C(F)(F)F)c1 [Compound 10o, 6-Fluoro-4-oxo-N-(4-(3-(3-(trifluoromethyl)phenyl)ureido)phenyl)-1,4-dihydroquinoline-3-carboxamide] | 2.76 ± 0.1 | Selectivity index (SI) [4]: 5.52; CC50 at 48 h [5]: 15.2 µM
9 | > 300 | 0.097 ± 1e-05 µM | CC(C)c1ccc(NC(=O)Nc2ccc(NC(=O)c3c[nH]c4ccc(F)cc4c3=O)cc2)cc1 [Compound 10p, 6-Fluoro-N-(4-(3-(4-isopropylphenyl)ureido)phenyl)-4-oxo-1,4-dihydroquinoline-3-carboxamide] | 8.14 ± 0.47 | Fold increase in VEGFR-2 inhibitory activity compared to para methyl substituted derivatives 10b and 10k (VEGFR-2): more than 16 fold

Continued, molecule first:

Row | SMILES | melting point [°C] | IC50 (VEGFR-2) | IC50 (HepG2 cells [1]) [µM] | also measured
10 | O=C(Nc1ccccc1)Nc1ccc(NC(=O)c2c[nH]c3ccc(Cl)cc3c2=O)cc1 [Compound 10a, 6-Chloro-4-oxo-N-(4-(3-phenylureido)phenyl)-1,4-dihydroquinoline-3-carboxamide] | > 300 | 0.138 ± 1e-05 µM | 4.6 ± 0.28 | 
11 | Cc1ccc(NC(=O)Nc2ccc(NC(=O)c3c[nH]c4ccc(Cl)cc4c3=O)cc2)cc1 [Compound 10b, 6-Chloro-4-oxo-N-(4-(3-(p-tolyl)ureido)phenyl)-1,4-dihydroquinoline-3-carboxamide] | > 300 | 0.578 ± 3e-05 µM | 50.8 ± 3.16 | 
12 | Cc1cccc(NC(=O)Nc2ccc(NC(=O)c3c[nH]c4ccc(Cl)cc4c3=O)cc2)c1 [Compound 10c, 6-Chloro-4-oxo-N-(4-(3-(m-tolyl)ureido)phenyl)-1,4-dihydroquinoline-3-carboxamide] | > 300 | 0.169 ± 1e-05 µM | 4.14 ± 0.25 | 
13 | O=C(Nc1ccc(NC(=O)c2c[nH]c3ccc(Cl)cc3c2=O)cc1)Nc1cccc(C(F)(F)F)c1 [Compound 10f, 6-Chloro-4-oxo-N-(4-(3-(3-(trifluoromethyl)phenyl)ureido)phenyl)-1,4-dihydroquinoline-3-carboxamide] | > 300 | 0.1045 ± 5e-06 µM | 62 ± 3.87 | 
14 | N#Cc1ccc(NC(=O)Nc2ccc(NC(=O)c3c[nH]c4ccc(Cl)cc4c3=O)cc2)cc1 [Compound 10g, 6-Chloro-N-(4-(3-(4-cyanophenyl)ureido)phenyl)-4-oxo-1,4-dihydroquinoline-3-carboxamide] | > 300 | 1.603 ± 6e-05 µM | 43.1 ± 2.59 | 
15 | O=C(Nc1ccc(NC(=O)c2c[nH]c3ccc(Cl)cc3c2=O)cc1)Nc1ccc2ncsc2c1 [Compound 10h, N-(4-(3-(Benzo[d]thiazol-6-yl)ureido)phenyl)-6-chloro-4-oxo-1,4-dihydroquinoline-3-carboxamide] | > 300 | 0.937 ± 4e-05 µM | 14.9 ± 0.52 | Fold decrease in VEGFR-2 inhibitory activity (VEGFR-2; benzothiazole derivative, comparator not named): about 5.5 fold
16 | CC(C)c1ccc(NC(=O)Nc2ccc(NC(=O)c3c[nH]c4ccc(Cl)cc4c3=O)cc2)cc1 [Compound 10i, 6-Chloro-N-(4-(3-(4-isopropylphenyl)ureido)phenyl)-4-oxo-1,4-dihydroquinoline-3-carboxamide] |  | 0.036 ± 1e-05 µM | 1.6 ± 0.17 | Induction of Caspase-7 protein expression compared to negative control (Caspase-7 [2]): ≤ 6 folds; Freq G1 (HepG2 cells [3]): ***2.067 ± 0.189; Freq G2 (HepG2 cells [3]): ***49.80 ± 1.466; Freq S (HepG2 cells [3]): ***7.920 ± 0.2117; Freq Sub-G1 (HepG2 cells [3]): ***20.80 ± 0.7102; Selectivity index (SI) [4]: 13.13; CC50 at 48 h [5]: 21 µM; Fold increase in VEGFR-2 inhibitory activity compared to para methyl substituted derivatives 10b and 10k (VEGFR-2): more than 16 fold; Decrease of VEGFR-2 gene expression compared to untreated cells (VEGFR-2 gene): 84%; Induction of Bax protein expression compared to negative control (Bax [6]): up to 20 folds
17 | CNC(=O)c1cc(Oc2ccc(NC(=O)Nc3ccc(Cl)c(C(F)(F)F)c3)cc2)ccn1 [Sorafenib] |  |  | 8.38 ± 0.5 | CC50 at 48 h [5]: 18.5 µM; Effect on cell cycle kinetics of HepG2 cells (HepG2 cells [7]): sequestration of cells in the PreG1 (or Sub-G1 (G0)), as well as cell growth arrest in G2/M phase; Combined apoptosis, percent cell population (HepG2 cells [8]): 6.37%; Late apoptotic phase, percent cell population (HepG2 cells [8]): 4.2%; Effect on Bax expression in HepG2 cells (Bax [9]): no significant upregulation; Effect on caspase-7 expression in HepG2 cells (Caspase-7 [10]): significantly upregulate the expression of caspase-7
